According to ChEMBL document CHEMBL5715954, “Silencing c-Myc translation as a therapeutic strategy through targeting PI3Kδ and CK1ε in hematological malignancies” (Blood, 2017):
Calls of active or inactive are those of the source. The rule behind the calls is not given here.

How the values were obtained:
[1] = test system: LY7; assay: Induction of apoptosis in human LY7 cells assessed as increase in cleaved-PARP expression at 3 uM measured after 24 hrs in presence of bortezomib by Western blot analysis; assay type: functional, cell-based
[2] = test system: OCI-Ly10; assay: Induction of apoptosis in human LY10 cells assessed as increase in caspase-3/7 activation at 1 to 3 uM measured after 24 hrs in presence of bortezomib; assay type: functional, cell-based; details: dose 1-3 µM
[3] = target: mTORC1 (Homo sapiens) (UniProt P42345+Q8N122+Q9BVC4); assay: Inhibition of mTORC1 in human NCI-H929 cells assessed as reduction in 4E-BP1 phosphorylation at 5 uM measured after 24 hrs by Western blot analysis; assay type: cell-based
mTORC1 (Homo sapiens), sequence (Q8N122 whole entry, looked up, other chains not shown): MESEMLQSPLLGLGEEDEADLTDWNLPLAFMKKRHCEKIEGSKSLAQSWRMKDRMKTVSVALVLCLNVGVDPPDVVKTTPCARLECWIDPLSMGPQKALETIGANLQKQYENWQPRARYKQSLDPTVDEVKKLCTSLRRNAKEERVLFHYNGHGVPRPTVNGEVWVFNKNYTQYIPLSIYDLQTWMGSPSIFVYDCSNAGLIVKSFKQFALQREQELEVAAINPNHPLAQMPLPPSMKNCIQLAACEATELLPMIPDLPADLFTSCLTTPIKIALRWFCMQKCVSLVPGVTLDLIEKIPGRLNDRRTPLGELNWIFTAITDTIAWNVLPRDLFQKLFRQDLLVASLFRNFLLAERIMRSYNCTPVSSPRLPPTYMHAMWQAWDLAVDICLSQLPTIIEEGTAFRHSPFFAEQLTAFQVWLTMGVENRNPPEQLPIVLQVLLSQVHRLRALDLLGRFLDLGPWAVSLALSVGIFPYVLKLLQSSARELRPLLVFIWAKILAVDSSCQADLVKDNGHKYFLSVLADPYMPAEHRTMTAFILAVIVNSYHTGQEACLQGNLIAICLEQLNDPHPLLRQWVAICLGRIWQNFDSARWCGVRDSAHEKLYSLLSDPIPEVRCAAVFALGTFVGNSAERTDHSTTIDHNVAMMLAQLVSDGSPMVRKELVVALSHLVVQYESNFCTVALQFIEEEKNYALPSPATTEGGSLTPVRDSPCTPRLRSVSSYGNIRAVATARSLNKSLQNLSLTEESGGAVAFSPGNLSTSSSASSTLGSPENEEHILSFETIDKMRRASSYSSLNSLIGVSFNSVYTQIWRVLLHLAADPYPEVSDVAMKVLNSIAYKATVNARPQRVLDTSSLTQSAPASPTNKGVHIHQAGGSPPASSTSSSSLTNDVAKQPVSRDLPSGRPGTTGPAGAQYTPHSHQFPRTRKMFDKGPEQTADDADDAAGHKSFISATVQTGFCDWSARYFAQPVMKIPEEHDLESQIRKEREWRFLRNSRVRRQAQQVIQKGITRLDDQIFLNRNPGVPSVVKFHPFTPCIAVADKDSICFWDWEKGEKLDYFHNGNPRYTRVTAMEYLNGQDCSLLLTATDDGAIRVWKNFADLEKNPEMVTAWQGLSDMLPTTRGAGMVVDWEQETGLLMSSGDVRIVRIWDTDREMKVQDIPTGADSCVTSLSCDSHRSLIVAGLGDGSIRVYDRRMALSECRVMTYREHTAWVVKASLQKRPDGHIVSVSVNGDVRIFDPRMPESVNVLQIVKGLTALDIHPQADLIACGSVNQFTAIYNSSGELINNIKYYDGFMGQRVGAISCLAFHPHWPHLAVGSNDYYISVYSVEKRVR
mTORC1 (Homo sapiens), sequence (Q9BVC4 whole entry, looked up, other chains not shown): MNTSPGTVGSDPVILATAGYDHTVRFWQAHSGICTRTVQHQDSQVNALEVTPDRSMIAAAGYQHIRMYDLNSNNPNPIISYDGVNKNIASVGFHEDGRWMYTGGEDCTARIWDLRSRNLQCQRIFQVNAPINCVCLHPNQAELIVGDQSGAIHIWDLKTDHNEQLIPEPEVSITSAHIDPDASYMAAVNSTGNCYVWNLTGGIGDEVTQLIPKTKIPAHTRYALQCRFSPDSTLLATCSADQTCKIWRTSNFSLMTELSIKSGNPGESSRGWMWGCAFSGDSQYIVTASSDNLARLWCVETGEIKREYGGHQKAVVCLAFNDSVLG

[4] = test system: OCILY7; assay: Inhibition of PI3Kdelta/CK1epsilon in human OCILY7 cells transfected with c-Myc-expressing plasmid (M+) assessed as reduction in c-Myc expression at 7.5 to 25 uM measured after 24 hrs by Western blot analysis; assay type: cell-based; details: dose 7.5-25 µM
[5] = target: T1, Phosphatidylinositol 4,5-bisphosphate 3-kinase catalytic subunit delta isoform (Homo sapiens) (UniProt O00329); assay: Inhibition of PI3Kdelta in human Jurkat cells assessed as reduction in AKT phosphorylation at S473 residue measured after 4 hrs; assay type: cell-based; details: dose 10-10000 nM
T1 sequence (whole entry): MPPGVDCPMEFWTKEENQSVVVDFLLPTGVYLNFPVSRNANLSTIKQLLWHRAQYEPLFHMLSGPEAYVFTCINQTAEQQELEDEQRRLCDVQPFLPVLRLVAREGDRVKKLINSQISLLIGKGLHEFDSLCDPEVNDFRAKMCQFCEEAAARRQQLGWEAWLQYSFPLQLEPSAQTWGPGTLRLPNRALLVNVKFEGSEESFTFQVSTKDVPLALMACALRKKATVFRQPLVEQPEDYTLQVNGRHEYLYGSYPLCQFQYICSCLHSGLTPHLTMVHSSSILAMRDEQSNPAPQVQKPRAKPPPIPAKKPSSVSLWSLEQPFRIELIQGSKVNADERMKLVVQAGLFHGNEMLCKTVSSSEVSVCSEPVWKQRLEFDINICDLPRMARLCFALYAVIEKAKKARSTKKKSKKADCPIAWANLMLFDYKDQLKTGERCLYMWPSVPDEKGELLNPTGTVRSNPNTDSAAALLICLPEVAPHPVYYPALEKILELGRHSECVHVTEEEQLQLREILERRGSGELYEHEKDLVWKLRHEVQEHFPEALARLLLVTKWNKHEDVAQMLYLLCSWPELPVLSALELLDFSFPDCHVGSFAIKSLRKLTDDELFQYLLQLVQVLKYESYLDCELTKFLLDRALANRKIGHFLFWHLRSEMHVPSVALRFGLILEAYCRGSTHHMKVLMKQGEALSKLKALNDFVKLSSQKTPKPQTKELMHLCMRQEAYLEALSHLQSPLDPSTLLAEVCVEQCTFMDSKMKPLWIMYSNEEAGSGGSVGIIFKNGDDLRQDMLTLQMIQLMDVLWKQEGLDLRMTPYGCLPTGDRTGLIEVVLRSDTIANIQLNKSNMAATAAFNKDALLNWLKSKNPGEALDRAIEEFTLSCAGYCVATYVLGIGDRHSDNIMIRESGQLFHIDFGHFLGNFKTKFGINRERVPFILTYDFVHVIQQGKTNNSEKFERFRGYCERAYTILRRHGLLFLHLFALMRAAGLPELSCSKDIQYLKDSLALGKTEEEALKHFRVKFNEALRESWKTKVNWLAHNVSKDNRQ

[6] = target: Myc proto-oncogene protein (Homo sapiens) (UniProt P01106); assay: Inhibition of c-Myc in human LY7 cells assessed as reduction in eIF4B expression at 3 uM incubated for 24 hrs in presence of carfilzomib by Western blot analysis; assay type: cell-based
Myc proto-oncogene protein (Homo sapiens), sequence (P01106 whole entry): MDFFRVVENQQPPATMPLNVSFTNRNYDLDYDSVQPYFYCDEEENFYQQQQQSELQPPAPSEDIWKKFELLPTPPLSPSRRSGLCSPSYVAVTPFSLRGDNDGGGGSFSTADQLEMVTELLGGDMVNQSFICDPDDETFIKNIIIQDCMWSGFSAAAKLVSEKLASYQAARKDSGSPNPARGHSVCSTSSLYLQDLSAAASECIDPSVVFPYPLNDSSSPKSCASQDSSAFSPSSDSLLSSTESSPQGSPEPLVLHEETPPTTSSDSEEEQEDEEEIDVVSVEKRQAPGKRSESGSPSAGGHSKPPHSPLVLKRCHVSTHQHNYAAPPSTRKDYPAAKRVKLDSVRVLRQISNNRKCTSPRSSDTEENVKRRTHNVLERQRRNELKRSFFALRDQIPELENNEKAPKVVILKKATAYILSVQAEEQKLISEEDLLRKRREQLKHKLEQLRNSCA

Row | Structure (SMILES) | Activity [1] | Activity [2] | inhibition [3] | inhibition [4] | inhibition [5] | inhibition [6]
1 | CC[C@H](Nc1ncnc2[nH]cnc12)c1nc2cccc(F)c2c(=O)n1-c1ccccc1 | Active | Active |  |  |  | 
2 | CC(C)Oc1ccc(-c2nn([C@@H](C)c3oc4ccc(F)cc4c(=O)c3-c3cccc(F)c3)c3ncnc(N)c23)cc1F [UMBRALISIB] |  |  | inactive | inactive | Dose-Dependent Effect | Active
